Data from PMC4859512, “Polyamino-Isoprenic Derivatives Block Intrinsic Resistance of P. aeruginosa to Doxycycline and Chloramphenicol In Vitro” (PLoS ONE, 2016).
Several values for one entry are separate records, joined by “and”; a condition that tells them apart may be missing. Identical values can stand only once.

Assays:
[1] = tested on: P. aeruginosa PT629 (Mex AB overproducer); experiment: Antibiotic susceptibility testing (broth micro-dilution MIC), strain PT629; assay type: cell-based, Pseudomonas aeruginosa
[2] = tested on: P. aeruginosa PA01 ERY^R (Mex CD overproducer); experiment: microbe, parasite or virus in culture; assay type: cell-based, Pseudomonas aeruginosa
[3] = tested on: twenty clinical isolates of P. aeruginosa; experiment: Combined antibiotic / polyamino-isoprenic derivative on MH agar plates, clinical isolates; assay type: cell-based, Pseudomonas aeruginosa
Method: MH agar plates were prepared, containing 2 mg/L doxycycline and 2 mg/L doxycycline in combination with compounds at a concentration of 10 μM. Bacteria, 5 μL of a suspension of each clinical isolate adjusted to 5 x 10^5 colony-forming units per ml were spotted on each plate and growth was monitored after a 18 h period of incubation at 37°C.
PA01 is a well-studied reference strain of P. aeruginosa, however to extend our study we considered strains recently isolated from hospitalized patients. Thus, we decided to test this combination of doxycycline (2mg/L) with polyamino-isoprenic compounds (10 μM) on twenty clinical isolates recently isolated from the HIA-Laveran (see M&M section and S1 Table).

[4] = tested on: P. aeruginosa PA01; experiment: Comparison of efficiency between compounds and PAßN (compound gradient with 2 mg/L doxycycline); assay type: cell-based, Pseudomonas aeruginosa; conditions: for concentration needed to inhibit growth in the presence of doxycycline: PA01, doxycycline 2 mg/L, 18 h
Method: Serial dilutions of each compound (from 270 μM to 0.95 μM for PAßN and from 135 μM to 0.06 μM for 3) were prepared in microplates. Doxycycline (2 mg/L) was then added to each well before inoculation of bacteria (5x10^5 cfu/mL). Optical density (600 nm) was measured after 18 hours at 37°C. Only the relevant part of the graphs are shown. Experiments were performed in triplicate.
First, we performed a checkerboard assay to analyze the synergy between doxycycline and the polyamino-isoprenic compound and between doxycycline and PAβN. For both, compound 3 and PAβN we observed a synergistic inhibition of growth when combined with doxycycline with a FIC Index of 0.09 (S2 Table). […] PAßN is generally used at a concentration greater than 10 μM to inhibit the resistance of P. aeruginosa with respect to various antibiotics, and, to our knowledge, no data have been reported in the literature on its use in combination with doxycycline. The percentage of growth inhibition was monitored as a function of compound concentration, and the results are presented in Fig 3.

[5] = tested on: efflux of 1,2'-dinaphthylamine in strain PA01; experiment: Real-time efflux assay (1,2'-dinaphthylamine, glucose-triggered); assay type: cell-based, Pseudomonas aeruginosa
Method: The experiments were performed as previously described with slight modifications. For each strain, 20 mL of MHII was inoculated with a single colony from a fresh plate and grown at 37°C to the stationary phase. […] They were then loaded over night with the dye 1,2’-dinaphthylamine (TCI-Europe SA, Zwijndrecht, Belgium) at a final concentration of 32 μM, in the presence of 5 μM CCCP. […] In a 96-well Greiner black microplate (Greiner, Courtaboeuf, France), a gradient of inhibitor (when used) was prepared in PPB, and bacteria were added (100 μL per well). The fluorescence of the cell suspension, was monitored each 22 sec during 1200 sec on an Infinite M200 microplate reader (Tecan; excitation wavelength 370 nm and emission wavelength 420 nm). In order to trigger the transport, glucose (50 mM final concentration) is added at 200 sec. The maximum efficacy of the efflux is the difference between the value obtained without and with glucose addition after 1200 sec. For each compound, the efficiency of efflux inhibition is calculated as the difference between the maximum efficacy of transport and the residual transport obtained at various concentrations of the compound.

[6] = tested on: CHO-K1 cells; experiment: cells; assay type: cell-based, Chinese Hamster; conditions: Cricetulus griseus, CHO-K1; WST1, 24 h; mean +/- SD, 2 independent experiments
Method: CHO-K1 cells (ATCC-LGC Standards Sarl (Molsheim, France) and human fibroblasts (Clinisciences, Paris, France) were maintained in McCoy’s 5A and DMEM media, respectively, supplemented with 10% bovine calf serum, 2 mM glutamine, and 100 U/mL/10 μg/mL penicillin/streptomycin. They were incubated at 37°C in a humidified atmosphere containing 5% CO2. The cell lines were seeded in 96-well plates and incubated overnight. The cytotoxic effects of compounds were assessed by the colorimetric WST-1 cell proliferation assay as previously described. Briefly, a range of compound concentrations from 30 μM to 1200 μM was added to triplicate cultures, and cells were incubated at 37°C for 24 h. At the end of the incubation period, cultures were washed three times with phosphate buffer saline (PBS) and incubated in fresh culture medium containing 10% WST-1 for an additional 30 min. Cell viability was evaluated by measuring the WST-1 absorbance at 450 nm in a microplate spectrophotometer MRX1 II (Dynex technologies, Chantilly, VA, USA). The Inhibitory Concentration 50% (IC50) was chosen to evaluate the cytotoxicity of compounds. IC50 was defined as the concentration of a compound that induced a 50% decrease in viable cells. Doxorubicin was used as a positive control.

[7] = tested on: P. aeruginosa PA01 reference strain; experiment: High-content screening in the presence of doxycycline; conditions: compound 10 μM, doxycycline 4 mg/L
Method: The screening was carried out in 96-well microtiter plates using MHBII, in a final volume of 200 μL. […] The bacterial inoculum of 5×10^5 CFU/mL was prepared from an overnight culture. In addition to the polyamino-isoprenic compounds, each plate contained PAßN, CCCP, CTAB, polymyxin-B and benzalkonium chloride as control molecules. Plates were incubated at 37°C under aerobic conditions for 18 hours. Plates were read at 600 nm on an Infinite M200 Pro plate reader (Tecan).
A series of 60 compounds, which were described [18], were tested at a concentration of 10 μM in combination with a sub-inhibitory concentration of doxycycline against the reference strain of P. aeruginosa PA01. In parallel, we evaluated the intrinsic antimicrobial activity of these compounds alone to allow the selection of only doxycycline adjuvants.

[8] = Pseudomonas aeruginosa, read-out: Minimal Inhibitory Concentration
[9] = chloramphenicol 4 mg/L + compound 10 μM

Q: For `CC(C)=CCCC(C)=CCCC(C)=CCNCCCNCCCCNCCCN` [Compound 3], which “MIC of Amikacin in the presence of the compound” value ([1]; PT629, compound 10µM) is on record?
A: 64 µg/mL

Q: And the “MIC of Ceftazidime in the presence of the compound” value ([1]; PT629, compound 10µM)?
A: 8 µg/mL

Q: And the “MIC of Ciprofloxacin in the presence of the compound” value ([1]; PT629, compound 10µM)?
A: 0.5 µg/mL

Q: What about the “MIC of Ticarcillin in the presence of the compound” value ([1]; PT629, compound 10µM) of the same compound?
A: 64 µg/mL

Q: And the MIC [1, 8]?
A: 25 µg/mL and 62.5 µM

Q: And the “MIC of Amikacin in the presence of the compound” value ([2]; PA01 ERY R, compound 10µM)?
A: 32 µg/mL

Q: And the “MIC of Ceftazidime in the presence of the compound” value ([2]; PA01 ERY R, compound 10µM)?
A: 2 µg/mL

Q: What about the “MIC of Ciprofloxacin in the presence of the compound” value ([2]; PA01 ERY R, compound 10µM) of the same compound?
A: 0.125 µg/mL

Q: What about the “MIC of Ticarcillin in the presence of the compound” value ([2]; PA01 ERY R, compound 10µM) of the same compound?
A: 16 µg/mL

Q: And the MIC [2, 8]?
A: 25 µg/mL and 62.5 µM

Q: And the clinical isolates resistant [3, 9]?
A: 25%

Q: And the “clinical isolates resistant (number of 20)” value [3, 9]?
A: 5

Q: And the “clinical isolates whose growth was impaired” value [3, 9]?
A: 75%

Q: And the “clinical isolates whose growth was impaired (number of 20)” value ([3]; chloramphenicol 4 mg/L + compound 10 μM, data not shown)?
A: 15

Q: And the “MIC ratio (doxycycline)” value ([3]; clinical isolates, with compound)?
A: 32

Q: And the “isolates with doxycycline susceptibility restored” value ([3]; doxycycline 2 mg/L + compound 10 μM, 20 clinical isolates)?
A: total susceptibility of all the considered isolates

Q: What about the “concentration needed to inhibit growth in the presence of doxycycline” value [4] of the same compound?
A: ~1.22 mg/L

Q: And the “concentration needed to inhibit growth in the presence of doxycycline” value ([4]; graphically determined on Fig 3)?
A: approximately 3 μM

Q: And the “potency in comparison with PAßN” value ([4]; adjuvant of doxycycline)?
A: approximately 10 times

Q: What about the “rank of efflux inhibition among compounds 1-4 and PAßN” value [5] of the same compound?
A: the most efficient

Q: What about the IC50 ([5]; Pseudomonas aeruginosa, 2.5x10^8 cfu/mL, read-out: concentration needed to inhibit 50% of 1,2'DNA efflux) of the same compound?
A: 31.2 µM

Q: What about the inhibition at 31.25 µM ([5]; Pseudomonas aeruginosa, compound at 31.25μM) of the same compound?
A: 60%

Q: And the efflux inhibition ([5]; compound at 15.6μM)?
A: fifty percent efflux inhibition

Q: What about the efflux inhibition ([5]; compound at 125μM) of the same compound?
A: completely abolished the transportation of dye

Q: What about the IC50 [6] of the same compound?
A: 320 ± 41.2 µM

Q: What about the “bacterial growth in combination with doxycycline” value [7] of the same compound?
A: completely abolished bacterial growth
